In patent publication US8900444B2, “Switchable hydrophilicity solvents and methods of use thereof” (Queen's University at Kingston, priority 2009, dated 2014):

What was measured:
Type in all cases: physicochemical
[1] = Qualitative switchability assessment of BA (Example 1B)
Text: The BA amidine's ability to act as a switchable hydrophilicity solvent for the separation of a selected substance is dependent on its ability to switch from the hydrophobic form to a hydrophilic form. This is achieved by adding water to provide an aqueous layer and decreasing the pH of the aqueous layer, namely by dissolving CO2 in the aqueous layer. When carbon dioxide dissolves in water, it forms carbonic acid with pKa1 of 6.4. The resultant dissociation is sufficient to protonate a hydrophobic amidine, causing it to become charged forming a hydrophilic amidinium bicarbonate (BAB). In this preliminary switching study, the amidine's ability to act as a base and its ability to switch hydrophilicity were studied.
Switching behavior was studied for BA over various periods of time. A glass vial (4 mL) was prepared, containing distilled water (1.0 mL) and BA amidine (0.5 mL).
CO2 was bubbled through the vial for roughly 30 minutes, until the top layer had disappeared showing that a hydrophilic solution of BAB in water had been formed.
A magnetic stirrer was placed in the vial. The vial was suspended in an 80° C. oil bath and stirred. The vial was intermittently removed from the bath and monitored for the presence of a second layer after 20, 50 and 75 minutes. The formation of a second layer (hydrophobic BA) was noted after 20 minutes in the oil bath.

[2] = Polarity study with solvatochromatic dye Nile Red (Example 3); conditions: water-saturated BA or aqueous solution of BAB
Method: The maximum wavelength of absorption, λmax, of a switchable hydrophilicity solvent, N,N,N′-tributylpentanamidine (BA), was analyzed in its hydrophobic and hydrophilic forms using the solvatochromatic dye, Nile Red. A 1 Dram vial was prepared containing 1 mL of distilled water to which 1 mL of BA was added. […] This ensured saturation of the BA phase with water. The top phase comprising the BA liquid was pipetted into a quartz cuvette (Semi-Micro Cells, Self Masking Black Walls Spectrosil® Quartz, Starna Cells, Atascadero, Calif., USA) and 1 mg of Nile Red was added, to provide a bright orange-magenta solution. The ultraviolet absorbance spectrum was acquired on an Agilent Technologies ultraviolet/visible spectrometer 50-60 Hz with UV-Visible Chemstation software. The λmax was 510 nm. Distilled water (1.0 mL) was then added to the quartz cuvette and carbon dioxide was slowly bubbled into the mixture for 1 hour to switch the BA to its ionic form, N,N,N′-tributylpentanamidinium bicarbonate (BAB), after which the homogenous mixture turned purple. The ultraviolet absorbance spectrum of the aqueous solution of the dye and ionic salt was then acquired as discussed in the previous paragraph. The λmax was 570 nm.

[3] = Water miscibility of amidines in neutral form and after CO2
Text: This represents relatively hydrophilic character. The amidines A-D are unsatisfactory for use as a switchable hydrophilicity solvent because they are insufficiently hydrophobic in their amidine form. […] Since such amidines are not separable from water after switching from their hydrophilic to hydrophobic forms, they are unsuitable for use in the present invention.
Exposure of a 1:1 by volume mixture of two immiscible liquids, hydrophobic PA and water, to gaseous CO2, at 1 atmosphere, caused a conversion to a hydrophilic liquid comprising an aqueous solution of N,N,N′-tripropylbutyramidinium bicarbonate (PAB) (see FIG. 1 for the chemical scheme in which R^1-4 are propyl). NMR data for the PA/water system is presented in FIGS. 4 and 5 and IR data in FIG. 6. FIGS. 4A and 5A show ^1H and ^13C NMR data for PA. After switching, the detection of the N,N,N′-tripropylbutyramidinium bicarbonate salt was confirmed by ^1H and ^13C NMR as shown in FIGS. 4B and 5B.
Similarly, exposure of a 1:1 by volume mixture of two immiscible liquids, hydrophobic BA and water, to gaseous CO2, at 1 atmosphere, caused a conversion to a hydrophilic liquid comprising an aqueous solution of N,N,N′-tributylpentanamidinium bicarbonate (BAB) (see FIG. 1 for the chemical scheme in which R^1-4 are butyl). NMR data for the […] is presented in FIGS. 7 and 8 and IR data in FIG. 9. […] show ^1H and ^13C NMR data for BA. After switching, the detection of the N,N,N′-tributylpentanamidinium bicarbonate salt was confirmed by ^1H and ^13C NMR as shown in FIGS. 6B and 7B. The hydrophilic aqueous solution of BAB was converted back into hydrophobic BA and water by heating at 80° C.

[4] = Quantitative switching study of BA by 1H NMR (Example 1D)
Method: A methanol-d4 solution was prepared containing a sodium acetate internal standard (48.8 mM).
Two 4 mL glass vials containing 1.0 mL D2O and 0.5 mL BA were prepared and shaken. A 50 μL sample was withdrawn from each layer of one vial and combined with 0.50 mL of the sodium acetate standard solution in each of two NMR tubes: the top layer (BA) in a first tube; the bottom layer (aqueous) in a second tube.
Carbon dioxide was bubbled through the unsampled vial until the BA had completely converted to BAB, as evidenced by the disappearance of the top layer. The pH of the solution was measured using pH paper to be approximately 8-9. A 50 μL sample was withdrawn from the BAB/D2O solution and added to 0.50 mL of the sodium acetate standard solution in a third NMR tube.
The 4.0 mL vial from which the last NMR sample was withdrawn was then heated at 80° C. for 1 h and stirred by a magnetic stirrer. Bubbles of CO2 were observed escaping from the solution and a top layer, hydrophobic amidine, appeared. After cooling the vial to room temperature, a 50 μL sample was withdrawn from each layer and combined with 0.50 mL of the sodium acetate standard in two NMR tubes: the top layer (BA) in a fourth tube; the bottom layer (aqueous) in a fifth tube.
The NMR spectra of all five samples are shown in FIG. 10 with the first to fifth tubes shown from top to bottom. […] In addition, using the ‘c’ and ‘d’ protons provided stronger signals, to improve accuracy. Based on the strength of the ‘c’ and ‘d’ signals, 11% of the BA remained in the aqueous phase as BAB after the experiment
Using dioxane as the internal standard gave the same results (11% BAB retention in the aqueous phase) as sodium acetate.
The same experiment was repeated except that the temperature of the heating of the 4.0 mL vial was increased from 80° C. to 90° C. A similar retention of BAB in the aqueous phase (12%) was observed.

time of CO2 bubbling until top layer disappeared ([1]; 1.0 mL water + 0.5 mL BA): roughly 30 minutes
heating time to formation of second (hydrophobic) layer ([1]; 80 °C oil bath, stirred): 20 min
maximum wavelength of absorption (λmax) of Nile Red [2]: 510 nm
miscibility with water after CO2 trigger (amidinium bicarbonate form) ([3]; CO2 and water): became miscible
miscibility with water, neutral (unprotonated) amidine form ([3]; no CO2): immiscible with water
BA remaining in the aqueous phase as BAB after heating ([4]; 80 °C, 1 h, sodium acetate internal standard): 11%
BA recovered when amidinium bicarbonate solution is heated ([4]; from 1H NMR peak integrations): 89%
SMILES: CCCCN=C(CCCC)N(CCCC)CCCC [BA, N,N,N′-tributylpentanamidine]
